Legend:
[1] = Cytotoxicity against human PC3 cells assessed as cell viability at 10 uM after 72 hrs by sulforhodamine B assay relative to control; assay type: functional; details: PC-3, 72 h, read-out: Activity
[2] = system: ACHN; assay: Cytotoxicity against human ACHN cells assessed as cell viability at 10 uM after 72 hrs by sulforhodamine B assay relative to control; assay type: functional; details: read-out: Activity
[3] = system: MDA-MB-231; assay: Cytotoxicity against human MDA-MB-231 cells assessed as cell viability at 10 uM after 72 hrs by sulforhodamine B assay relative to control; assay type: functional; details: MDA-MB-231, 72 h, read-out: Activity
[4] = Cytotoxicity against human NUGC3 cells assessed as cell viability at 10 uM after 72 hrs by sulforhodamine B assay relative to control; assay type: functional; details: NUGC-3, 72 h, read-out: Activity
[5] = target: Nuclear factor NF-kappa-B complex (Homo sapiens) (UniProt Q00653+P19838+Q04206); assay: Inhibition of NF-kappaB (unknown origin) transcriptional activity in LPS-induced mouse RAW264.7 cells at 30 uM after 1 hr by secreted alkaline phosphatase assay relative to control; assay type: cell-based
Nuclear factor NF-kappa-B complex (Homo sapiens), sequence (P19838 whole entry, looked up): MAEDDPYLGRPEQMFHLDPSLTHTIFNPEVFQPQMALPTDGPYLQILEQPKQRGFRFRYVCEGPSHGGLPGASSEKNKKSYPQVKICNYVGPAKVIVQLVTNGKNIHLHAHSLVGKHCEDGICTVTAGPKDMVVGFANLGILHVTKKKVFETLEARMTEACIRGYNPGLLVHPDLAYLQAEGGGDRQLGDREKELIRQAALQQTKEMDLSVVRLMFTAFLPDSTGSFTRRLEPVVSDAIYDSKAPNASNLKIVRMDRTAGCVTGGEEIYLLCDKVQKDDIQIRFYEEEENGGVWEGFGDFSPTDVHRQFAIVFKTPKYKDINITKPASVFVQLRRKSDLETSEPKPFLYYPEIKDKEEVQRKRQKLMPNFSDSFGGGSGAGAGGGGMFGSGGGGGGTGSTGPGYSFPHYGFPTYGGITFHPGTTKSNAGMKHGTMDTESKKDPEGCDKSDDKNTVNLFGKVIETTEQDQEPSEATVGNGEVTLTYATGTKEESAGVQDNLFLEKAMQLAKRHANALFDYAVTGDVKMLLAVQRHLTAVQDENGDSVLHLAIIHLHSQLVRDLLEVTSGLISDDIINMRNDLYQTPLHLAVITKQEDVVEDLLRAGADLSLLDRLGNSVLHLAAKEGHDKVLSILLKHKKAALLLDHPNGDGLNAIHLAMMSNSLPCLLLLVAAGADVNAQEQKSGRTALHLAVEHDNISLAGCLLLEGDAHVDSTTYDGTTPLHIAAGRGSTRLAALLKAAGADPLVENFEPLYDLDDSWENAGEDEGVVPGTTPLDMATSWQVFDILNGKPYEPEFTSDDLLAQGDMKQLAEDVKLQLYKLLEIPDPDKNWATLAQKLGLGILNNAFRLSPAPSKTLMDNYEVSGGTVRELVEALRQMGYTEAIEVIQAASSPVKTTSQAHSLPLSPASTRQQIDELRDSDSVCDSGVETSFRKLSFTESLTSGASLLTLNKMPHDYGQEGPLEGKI
Nuclear factor NF-kappa-B complex (Homo sapiens), sequence (Q00653 whole entry, looked up): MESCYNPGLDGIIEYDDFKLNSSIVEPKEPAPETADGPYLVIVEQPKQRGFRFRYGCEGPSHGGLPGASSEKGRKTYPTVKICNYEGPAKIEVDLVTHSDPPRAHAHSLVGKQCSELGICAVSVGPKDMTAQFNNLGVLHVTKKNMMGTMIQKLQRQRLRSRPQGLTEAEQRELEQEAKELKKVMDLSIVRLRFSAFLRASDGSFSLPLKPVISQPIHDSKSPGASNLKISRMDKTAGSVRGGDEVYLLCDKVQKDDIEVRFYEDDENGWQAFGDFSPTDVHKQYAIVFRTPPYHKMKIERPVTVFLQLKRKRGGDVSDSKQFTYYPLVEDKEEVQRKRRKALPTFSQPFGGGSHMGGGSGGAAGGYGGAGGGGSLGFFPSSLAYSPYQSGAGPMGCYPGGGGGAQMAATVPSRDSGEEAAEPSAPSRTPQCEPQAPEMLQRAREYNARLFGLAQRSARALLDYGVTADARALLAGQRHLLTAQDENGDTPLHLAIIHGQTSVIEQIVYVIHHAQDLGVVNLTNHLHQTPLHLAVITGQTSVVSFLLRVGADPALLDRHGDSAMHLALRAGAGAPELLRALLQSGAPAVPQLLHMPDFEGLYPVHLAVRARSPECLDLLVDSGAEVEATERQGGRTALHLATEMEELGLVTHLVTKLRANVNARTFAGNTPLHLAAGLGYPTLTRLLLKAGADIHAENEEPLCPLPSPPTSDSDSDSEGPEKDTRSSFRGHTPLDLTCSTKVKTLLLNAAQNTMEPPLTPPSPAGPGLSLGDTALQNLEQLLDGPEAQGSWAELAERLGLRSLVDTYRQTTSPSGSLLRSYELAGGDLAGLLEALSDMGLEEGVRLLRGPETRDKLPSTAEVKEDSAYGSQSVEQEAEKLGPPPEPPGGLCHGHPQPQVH
Nuclear factor NF-kappa-B complex (Homo sapiens), sequence (Q04206 whole entry, looked up): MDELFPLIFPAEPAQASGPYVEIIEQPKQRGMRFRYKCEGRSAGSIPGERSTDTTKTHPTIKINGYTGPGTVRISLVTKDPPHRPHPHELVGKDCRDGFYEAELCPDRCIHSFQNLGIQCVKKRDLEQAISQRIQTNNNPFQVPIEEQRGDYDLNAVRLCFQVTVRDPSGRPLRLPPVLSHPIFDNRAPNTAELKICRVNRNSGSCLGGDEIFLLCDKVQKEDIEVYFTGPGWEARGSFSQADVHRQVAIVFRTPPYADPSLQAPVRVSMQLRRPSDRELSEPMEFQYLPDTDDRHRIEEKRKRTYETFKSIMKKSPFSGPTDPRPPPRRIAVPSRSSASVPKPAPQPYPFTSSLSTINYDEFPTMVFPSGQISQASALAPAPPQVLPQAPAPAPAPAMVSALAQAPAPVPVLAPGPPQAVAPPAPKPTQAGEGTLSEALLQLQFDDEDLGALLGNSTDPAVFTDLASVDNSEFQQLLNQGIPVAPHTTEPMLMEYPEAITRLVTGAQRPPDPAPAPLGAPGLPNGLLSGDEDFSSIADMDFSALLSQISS

[6] = Cytotoxicity against human HCT15 cells assessed as cell viability at 10 uM after 72 hrs by sulforhodamine B assay relative to control; assay type: functional; details: HCT-15, 72 h, read-out: Activity
[7] = system: NCI-H23; assay: Cytotoxicity against human NCI-H23 cells assessed as cell viability at 10 uM after 72 hrs by sulforhodamine B assay relative to control; assay type: functional; details: NCI-H23, 72 h, read-out: Activity
[8] = target: Nuclear factor NF-kappa-B complex (Homo sapiens, UniProt P19838+Q00653+Q04206); assay: Inhibition of NF-kappaB (unknown origin) transcriptional activity in LPS-induced mouse RAW264.7 cells after 1 hr by secreted alkaline phosphatase assay; assay type: cell-based
Nuclear factor NF-kappa-B complex, sequence (P19838 1-433 limits assumed): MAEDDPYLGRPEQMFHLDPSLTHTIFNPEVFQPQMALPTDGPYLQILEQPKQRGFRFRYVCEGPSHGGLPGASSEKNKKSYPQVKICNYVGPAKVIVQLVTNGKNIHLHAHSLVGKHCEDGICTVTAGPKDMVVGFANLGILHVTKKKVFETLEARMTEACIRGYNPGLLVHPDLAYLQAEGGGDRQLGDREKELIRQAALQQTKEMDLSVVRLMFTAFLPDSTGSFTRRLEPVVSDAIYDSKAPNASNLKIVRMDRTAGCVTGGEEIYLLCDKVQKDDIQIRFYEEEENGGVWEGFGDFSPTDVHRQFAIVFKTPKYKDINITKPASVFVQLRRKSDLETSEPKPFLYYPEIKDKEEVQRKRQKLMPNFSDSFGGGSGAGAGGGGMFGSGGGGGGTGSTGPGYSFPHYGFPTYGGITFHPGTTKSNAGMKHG
Nuclear factor NF-kappa-B complex, sequence (Q00653 1-454 limits assumed): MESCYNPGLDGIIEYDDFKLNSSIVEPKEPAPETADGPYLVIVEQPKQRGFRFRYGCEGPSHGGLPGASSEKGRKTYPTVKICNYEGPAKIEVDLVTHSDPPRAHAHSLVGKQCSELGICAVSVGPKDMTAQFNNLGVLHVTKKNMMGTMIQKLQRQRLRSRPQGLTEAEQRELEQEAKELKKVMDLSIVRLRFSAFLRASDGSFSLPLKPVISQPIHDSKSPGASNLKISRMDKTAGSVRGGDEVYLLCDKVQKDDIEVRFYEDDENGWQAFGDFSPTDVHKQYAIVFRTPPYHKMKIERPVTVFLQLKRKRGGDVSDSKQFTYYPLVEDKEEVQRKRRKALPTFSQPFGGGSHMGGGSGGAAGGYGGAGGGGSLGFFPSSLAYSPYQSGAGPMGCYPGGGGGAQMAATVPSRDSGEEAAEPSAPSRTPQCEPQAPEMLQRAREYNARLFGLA
Nuclear factor NF-kappa-B complex, sequence (Q04206 whole entry): as the sequence (Q04206 whole entry, looked up) above

[9] = system: ACHN; assay: Cytotoxicity against human ACHN cells assessed as growth inhibition after 72 hrs by sulforhodamine B assay; assay type: functional
[10] = Cytotoxicity against human PC3 cells assessed as growth inhibition after 72 hrs by sulforhodamine B assay; assay type: functional; details: PC-3, 72 h
[11] = Cytotoxicity against human NUGC3 cells assessed as growth inhibition after 72 hrs by sulforhodamine B assay; assay type: functional; details: NUGC-3, 72 h
[12] = system: MDA-MB-231; assay: Cytotoxicity against human MDA-MB-231 cells assessed as growth inhibition after 72 hrs by sulforhodamine B assay; assay type: functional; details: MDA-MB-231, 72 h
[13] = system: NCI-H23; assay: Cytotoxicity against human NCI-H23 cells assessed as growth inhibition after 72 hrs by sulforhodamine B assay; assay type: functional; details: NCI-H23, 72 h
[14] = Cytotoxicity against human HCT15 cells assessed as growth inhibition after 72 hrs by sulforhodamine B assay; assay type: functional; details: HCT-15, 72 h

`O=C(Nc1ccc(O)cc1)C1Cc2ccccc2O1` (stereo not given) gave a viability at 10 µM [1] of 98%, a viability at 10 µM [2] of 122% and a viability at 10 µM [3] of 91%. For the same molecule, the viability at 10 µM [4] was 102%, the inhibition [5] was 18.5% and the viability at 10 µM [6] was 88%. It also gave a viability at 10 µM [7] of 106%.

Work on `O=C(Nc1ccccc1O)C1Cc2ccccc2O1` (stereo not given) yielded a viability at 10 µM [1] of 109%, a viability at 10 µM [2] of 134% and a viability at 10 µM [3] of 83%. It also gave a viability at 10 µM [4] of 103%, an inhibition [5] of 20.5% and a viability at 10 µM [6] of 102%. It also gave a viability at 10 µM [7] of 102%.

`Cc1cccc(NC(=O)c2cc3ccccc3o2)c1` gave a viability at 10 µM [1] of 94%, a viability at 10 µM [2] of 93% and a viability at 10 µM [3] of 106%. The viability at 10 µM [4] was 99%, the inhibition [5] was 38% and the viability at 10 µM [6] was 87%. The viability at 10 µM [7] was 101%.

`Cc1ccc(NC(=O)c2cc3ccccc3o2)cc1C` showed a viability at 10 µM [1] of 92%, a viability at 10 µM [2] of 103% and a viability at 10 µM [3] of 92%. It also gave a viability at 10 µM [4] of 91%, an inhibition [5] of 70% and a viability at 10 µM [6] of 95%. It also gave a viability at 10 µM [7] of 100%.

In the case of `COc1ccccc1NC(=O)C1Cc2ccccc2O1` (stereo not given), the viability at 10 µM [1] is reported as 88%, the viability at 10 µM [2] is reported as 134% and the viability at 10 µM [3] is reported as 89%. For the same molecule, the viability at 10 µM [4] was 111%, the inhibition [5] was 29% and the viability at 10 µM [6] was 100%. It also gave a viability at 10 µM [7] of 111%.

With `COc1cc2c(cc1O)CCC(C(=O)Nc1ccccc1)O2` (stereo not given) the viability at 10 µM [1] was 90%, the viability at 10 µM [2] was 109% and the viability at 10 µM [3] was 81%. It also gave an IC50 [8] of 37.2 µM, a viability at 10 µM [4] of 99% and a viability at 10 µM [6] of 105%. The viability at 10 µM [7] was 86%.

In the case of `O=C(Nc1ccc(Cl)c(Cl)c1)C1Cc2ccccc2O1` (stereo not given), the viability at 10 µM [1] is reported as 99%, the viability at 10 µM [2] is reported as 109% and the viability at 10 µM [3] is reported as 98%. For the same molecule, the IC50 [8] was 23 µM, the viability at 10 µM [4] was 107% and the inhibition [5] was 65%. It also gave a viability at 10 µM [6] of 88% and a viability at 10 µM [7] of 94%.

`COc1ccccc1NC(=O)c1cc2ccccc2o1` gave a viability at 10 µM [1] of 106%, a viability at 10 µM [2] of 95% and a viability at 10 µM [3] of 97%. For the same molecule, the viability at 10 µM [4] was 99%, the inhibition [5] was 41% and the viability at 10 µM [6] was 94%. It also gave a viability at 10 µM [7] of 98%.

`Cc1ccc(C)c(NC(=O)c2cc3ccccc3o2)c1` showed a viability at 10 µM [1] of 98%, a viability at 10 µM [2] of 82% and a viability at 10 µM [3] of 102%. For the same molecule, the viability at 10 µM [4] was 88%, the inhibition [5] was 58% and the viability at 10 µM [6] was 94%. For the same molecule, the viability at 10 µM [7] was 94%.

Work on `O=C(Nc1cccc(Cl)c1)c1cc2ccccc2o1` yielded a viability at 10 µM [1] of 95%, a viability at 10 µM [2] of 69% and a viability at 10 µM [3] of 80%. It also gave a viability at 10 µM [4] of 83%, an inhibition [5] of 37% and a viability at 10 µM [6] of 52%. For the same molecule, the viability at 10 µM [7] was 61%.

For `Cc1cc(C)cc(NC(=O)C2Cc3ccccc3O2)c1` (stereo not given), the viability at 10 µM [1] was 94%, the viability at 10 µM [2] was 136% and the viability at 10 µM [3] was 97%. For the same molecule, the viability at 10 µM [4] was 95%, the inhibition [5] was 34% and the viability at 10 µM [6] was 91%. For the same molecule, the viability at 10 µM [7] was 97%.

Work on `O=C(Nc1ccc(Cl)cc1)c1cc2ccccc2o1` yielded a viability at 10 µM [1] of 84%, a viability at 10 µM [2] of 89% and a viability at 10 µM [3] of 96%. The viability at 10 µM [4] was 91%, the inhibition [5] was 43% and the viability at 10 µM [6] was 68%. It also gave a viability at 10 µM [7] of 92%.

`O=C(Nc1ccc(O)cc1)c1cc2ccccc2o1` showed a viability at 10 µM [1] of -31%, a GI50 [9] of 2.74 µM and a GI50 [10] of 2.68 µM. It also gave a viability at 10 µM [2] of 10%, a GI50 [11] of 5.86 µM and a viability at 10 µM [3] of -32%. It also gave a GI50 [12] of 2.2 µM, a GI50 [13] of 2.48 µM and a viability at 10 µM [4] of 47%. For the same molecule, the GI50 [14] was 2.37 µM, the inhibition [5] was 62% and the viability at 10 µM [6] was 18%. For the same molecule, the viability at 10 µM [7] was 25%.

`O=C(Nc1cc(C(F)(F)F)cc(C(F)(F)F)c1)C1Cc2ccccc2O1` (stereo not given) showed a viability at 10 µM [1] of 96%, a viability at 10 µM [2] of 94% and a viability at 10 µM [3] of 105%. The viability at 10 µM [4] was 105%, the inhibition [5] was 25% and the viability at 10 µM [6] was 92%. The viability at 10 µM [7] was 92%.
